# Test results: US20070082018A1, “Stabilized antimicrobial compositions and related methods of preparation” (priority 2005, published 2007)
# Legend:
# [1] = Effect of salts on stability of surfactant solutions, visual observation of precipitation; assay type: physicochemical; settings: aqueous solutions, 5 wt % LAE
# Procedure: Several experiments were conducted to examine the influence of salts on the stability of solutions containing Mirenat. The pH was not controlled here, as the buffer could mask the real behavior of the system. Still, it remained almost unchanged after the addition of salts. The added counterion (anion) contributed by the added electrolyte is assumed to be the same species as that contributed by the cationic surfactant, i.e. chloride ions Cl^−. Therefore, chloride salts, i.e. sodium chloride NaCl and calcium chloride CaCl2, were used. […] Precipitation occurred slowly, especially with low salt concentration where it could take up to 5 days. […] Almost every time precipitation took place, little or even no turbidity was noticeable. The results provided in Table 1 reflect qualitative visual observation.
# Materials and Solution Preparation. Concentrated Mirenat®-N solution (25% lauric arginate, 75% PEG) was obtained from A&B Ingredients and used without further purification. Polyoxyethylene 20 sorbitan monolaureate (Tween 20), solvents (HCl, NaOH, purity >99%) and NaCl (>99%) was obtained from Sigma Chemical (St. Louis, Mo.). All solutions were prepared using doubles distilled and deionized water. Micellar solutions were prepared by gently mixing surfactants (Tween and LAE) at appropriate concentrations with double distilled water. As needed, pH was adjusted using HCl and NaOH.
# [2] = Critical micelle concentration from surface tension (drop shape tensiometry); assay type: physicochemical; settings: for Critical micelle concentration (CMC): pure systems in water
# Procedure: The critical micelle concentration of the pure systems was determined by plotting surface tension values against the logarithm of the total surfactant concentration. In order to determine the values of the critical micelle concentration, two linear fits were used. The first line was fitted to interval of concentration characterized by linear decrease of the surface tension and the second one to the region of concentration with the nearly constant surface tension. The point in which the fitted lines cross corresponds to the value of the critical micelle concentration (CMC). Here, the CMC is reached at a Mirenat concentration 0.25% v/v. This corresponds to 1.65 mmol.L^−1 of lauric arginate, 4 times lower than the literature value. Accordingly, all experiments will be carried out at a concentration largely exceeding the found value: 5% v/v.
# Measurement of Surface Tension. A drop shape analysis tensiometer (Model DSA-G10 MK2, Kruss USA, Charlotte, N.C.) was used to determine surface tension of surfactant solutions (20.0±0.5° C.). The tensiometer determines the shape of pendant drops or bubbles through numerical analysis of the entire drop shape. The calculation of the interfacial tension from the drop shape is based on the Young-Laplace equation of capillarity and a detailed description can be found elsewhere (Dukhin, Kretschmer et al. 1995). Surface tension measurements were carried out at 20.0±0.5 ° C. To ensure accurate temperature control, an air bubble was formed at the inverted tip of a syringe that was submerged in the surfactant solution contained in a thermostatted cuvette. The syringe/cuvette system was positioned on an optical bench between the light source and a high-speed CCD camera. […] Samples were assumed to be equilibrated (the equilibrium dynamic interfacial tension DITeq) when measured values of DITeq remained unchanged for 30 minutes. […] Solution were equilibrated to 20° C. in a waterbath and density measured using a digital density meter (DMA 35N, Anton Paar GmbH, Graz, Austria). […]
# [3] = test system: Escherichia coli; settings: cited from earlier work
# [4] = test system: Listeria monocytogenes; settings: cited from earlier work
# [5] = Solution turbidity (absorbance at 600 nm) and precipitation versus pH on NaOH titration; assay type: physicochemical; settings: aqueous solutions, 5 wt % LAE, pH 2-13
# Procedure: The solution pH was increased stepwise by adding 0.5N NaOH and was recorded 2 min following each addition. It was plotted against the total amount of OH added for each of the solutions. Three minutes following each addition, a sub-sample was delivered via pipette into a cuvette for light absorption determination. […] However, this drastic change doesn't occur at the same hydroxide ions concentration for each of the different T20 concentrations. Indeed, it progressively shifts to the right of the graphic. Notice that beginning pH values are very close to each other for each solution. To the contrary, final pH values corresponding to the addition of 11 mmol OH^− are not the same and tend to decrease while the amount of T20 becomes higher. […]
# pH would be expected to have an effect on precipitation as it affects the concentration of background ions H^+ and OH^− in the medium. […] It has been assumed that the initial rate of change in absorbance in the dispersions is a qualitative measure of the precipitation rate. […]
# Solution Turbidity. Absorbance of solutions adjusted to pH or containing salts was measured by spectroscopy at a wavelength of 600 nm using a UV-Visible spectrophotometer (Spectronic 21D, Milton Roy, Rochester, N.Y.). […] The change in the of absorbance of solutions was used as an indirect measure to formation of larger particles an/or aggregates.
Compound,CaCl2 concentration at which precipitates form [1] [g/L],NaCl concentration at which precipitates form [1] [g/L],Critical micelle concentration (CMC) as lauric arginate ([2]; corresponds to Mirenat 0.25% v/v) [mmol/L],Critical micelle concentration (CMC) [2] [% v/v],Minimum inhibitory concentration [3],Minimum inhibitory concentration [4],pH at which precipitates form [5]
"CCCCCCCCCCCC(=O)N[C@@H](CCCNC(=N)N)C(=O)OCC.Cl [LAE, ethyl-N^alpha-dodecanoyl-L-arginate hydrochloride]",> 15,> 10,1.65,0.25,less than 10 ppm,less than 10 ppm,> 4.1
Polyoxyethylene 20 sorbitan monolaureate [T20],,,,0.3,,,
